Test results: patent US11168052B2, “Carbamate derivative compounds, processes for preparing them and their uses” (BIO-PHARM SOLUTIONS CO., LTD., priority 2016, dated 2021)

Assays:
[1] = test system: MES (electroshock) seizure in mice; assay: Anti-epilepsy activity, MES test in mouse; format: in vivo, ICR mice; conditions: po
Description: (§1) In the MES test (Ref., G. Villetti et al. Neuropharmacology 40(2001) 866-878), an electrical stimulus (mice: 50 mA, 60 Hz, 0.2 sec, and rats: 150 mA, 60 Hz, 0.2 sec in the test animal) supplied by an 11A Shocker (IITC Life Science Company) was delivered through corneal electrodes. All mice or rats assigned to any electroshock at peak time were treated with each test compound sample which was dissolved in 20% tween 80 prepared by saline solvent applied orally before the test. […] Three doses of the test sample were administered orally to 9-18 animals (3-6 mice per dose) for evaluating the respective doses at which 50% of the animals were protected from seizure (ED50). The ED50 value (median effective dose) was calculated by Litchfield and Wicoxon log-probit method which is a dose-response relationship. Experimental animals, male ICR mice and male SD rats, were purchased from OrientBio, Samtako, or Nara Biotech, Korea, and housed in cages (4-5 mice or 3 rats per cage) for 4-5 days. The range of mice body weight was between 19 and 25 grams and range of rats body weight was between 100 and 130 grams.

[2] = test system: MES (electroshock) seizure in rats; assay: Anti-epilepsy activity, MES test in rats; format: in vivo, SD rats; conditions: Rattus norvegicus, po
Description: as §1

[3] = test system: PTZ (Pentylenetetrazol)-induced clonic seizure in rats; assay: Anti-epilepsy activity, scPTZ test in rats; format: in vivo, SD rats
From the text: (§2) In this experiment, each test compound sample was formulated as described in Biological Experimental Example 1, and administered intraperitoneally to the test animals (mice; ICR or Rat; SD); Experimental animals, male ICR mice and male SD rats, were purchased from OrientBio or Nara biotech, Korea, and housed 4-5 mice per a cage for 4-5 days. The range of mice body weight was used between 19 and 26 grams and range of rats body weight was used between 100 and 130 grams. After Peak time (0.5, 1, 2 and 4 hr) from the administration, PTZ (Pentylenetetrazol) was administered subcutaneously in the concentration capable of inducing 97% intermittent convulsions (mice: 100-110 mg/kg?bw, 10 μl/g, or rats: 90-110 mg/kg?bw, 2 μl/g). If clonic seizure was not observed for at least 30 minutes in the PTZ administered animal, it can be considered that the test compound has anti-epilepsy activity. The median effective dose (ED50) is determined using 6 animals per a concentration (total three different concentrations), and calculated by Litchfield and Wicoxon log-probit method which is a dose-response relationship.

[4] = test system: CFA-induced pain model in rats; assay: Antiallodynic activity on Complete Freund's Adjuvant (CFA)-induced inflammatory pain model; format: in vivo, Sprague-Dawley rats; conditions: Rattus norvegicus, ip, 50 mg/kg intraperitoneally, von Frey threshold relative to sham, 0.5 hr after administration, read-out: Efficacy of 50 mg/kg(%)
Description: Male, Sprague-Dawley rats (210-250 g, Nara Bio, Korea) were habituated for 1 week before surgery and allowed free access to food and water throughout the experimentation. Room temperature and humidity were maintained at 24±2 and 50±10%, respectively.
CFA-induced inflammatory pain was induced by the procedure of Nagakura et al. (2003) and Gregory P. et al. (2010) with minor modifications. CFA (sigma, USA) was injected in the right plantar with a 100 ul volume under gaseous anesthesia with isoflurane. Sham controls were injected with 100 ul of saline, and preparation of the vehicle controls were identical to the group treated with compound, except for administration of vehicles without indentical to the vihecle control group.
Tactile sensitivity (Mechanical allodynia) was evaluated using von Frey monofilaments before and after treatment, and animals were include in the study only if the withdrawal threshold value was less than 4 g. One week after CFA injection, CFA-infused animals, sham-operated animal, and vehicle-operated animals were tested for tactile sensitivity with von Frey monofilaments, with 3 trials for each animal. All Animals were placed in a stainless steel mashe chamber and habituated for 30 min in the test cage. The tactile sensitivity for ipsilateral hind paw was measured using the up-and-down method (Dixon, 1980) with seven von Frey monofilaments (0.4, 1, 2, 4, 6, 8, and 15 g) to 3 trials. The tactile sensitivity test was followed by Dixon's method (Dixon, 1980). The 50% paw withdrawal threshold for each paw was calculated using the following formula: [Xth]log=[vFr]log+ky where [vFr] is the force of the last von Frey used, k=0.2249 which is the average interval (in log units) between the von Frey monofilaments, and y is a value that depends upon the pattern of withdrawal responses (Dixon, 1980).
Antiallodynic effect of compounds was evaluated at the dose of 50 mg/kg (n=4-6), intraperitoneally administrated in a volume of 5 ul/g bw in a vehicle of 30% (v/v) PEG or 20% (v/v) Tween 80. The test was performed peak time of efficacy (0.5 hr) after compound administration.
The relative values compared to the sham (% control) were calculated and shown in Table 5, which show an antiallodynic effect of Compound 1 on CFA-induced pain model in rats.

[5] = test system: PTZ (Pentylenetetrazol)-induced clonic seizure in mice; assay: Anti-epilepsy activity, scPTZ test in mouse; format: in vivo, ICR mice; conditions: ip
From the text: as §2

[6] = test system: Lithium-pilocarpine induced seizure in rats; assay: Lithium-pilocarpine induced epilepsy test (LI-PILO), prevention test; format: in vivo, Sprague-Dawley rats; conditions: Rattus norvegicus, ip, prevention, read-out: Lithium pilocarpine model (pre) ED50
Description: Male Sprague-Dawley rats (purchased from Orient Bio Inc. Korea) of body weight 175 grams were used for these studies and 3 rats per cage were housed for 4-5 days. On the day prior to SE, rats received 127 mg/kg lithium chloride (Sigma, St. Louis, Mo., U.S.A.) intraperitoneally (i.p.). Approximately 18-20 h following this treatment, rats were given an i.p. injection of the concentration capable of inducing 97% intermittent convulsions pilocarpine(Sigma, 30-43 mg/kg). An i.p. injection of 2 mg/kg methyl-scopolamine (Sigma) was administered 30 min prior to pilocarpine to block the effects of the muscarinic agonist on peripheral cholinergic receptors. Test drugs were dissolved in 20% tween80 (Sigma).
The drugs were administered intraperitoneally (i.p.) in a volume of 2 μl/g body weight. Pharmacological effects of all of the test materials were evaluated to compare test groups (n=6) with a control group (n=6). Control group was administered vehicle only. The efficacy was measured 0.5, 1, 2, or 4 hours after the administration of the test material. The time point that the most animals were protected was defined as peak time and the ED50 was determined at peak time. The animals were then transferred to observation cages and observed continuously for 90 min Seizure was elicited in approximately 95% of the control group. Protection was defined as complete absence of seizure grade 3-5 (Racine scale; Racine, 1972) over the 90-min observation period. The effective dose of the compound necessary to protect 50% of the animals against seizures compared to controls (i.e., ED50) was determined by a curve fitting program (Excel 2007, Microsoft).

[7] = test system: Picrotoxin (PIC)-induced clonic seizure in mice; assay: Chemical induced seizure model (PIC); format: in vivo, ICR mice; conditions: mice, dose 50 mg/kg
Description: Picrotoxin (PIC) were used to induce the behavioral seizures in the experiments. Male ICR mice (purchased from Orient Bio Inc. Korea) of body weight 19-26 g (mice) were used for these studies. The test materials were administered intraperitoneal (ip) route in a volume of 10 ul/g (mice) weight in rats or mice, respectively. Pharmacological effects of the test materials were evaluated to compared test groups (n=6) with a control group (n=6). Control group was administrated vehicle, only. The peak time was determined by administration of test material's random dose for 0.5, 1, 2, 4 hour. The time that the most protect was defined as a peak time and ED50 was determined by other dose administration at the peak time. Chemical (PIC) was dissolved in 0.9% saline and administered subcutaneously (s.c.) at its CD97 (convulsive dose 97%), the dose of Chemical (PIC) that produced clonic seizures in 97% into a loose fold of skin in the midline of the neck in a volume of 10 ul/g (mice) body weight. The animals were then transferred to observation cages and observed continuously for 45 min. Clonic seizure was elicited in approximately 97% of control group. Protection was defined as a complete absence of clonic seizure over the 45-min observation period. The effective dose of compound necessary to protect against generalized convulsive seizures to 50% of controls (i.e., ED50) was determined by log probit analysis using SPSS software program (SPSS Inc.). (Reference; White H. S., J. H. Woodhead, K. S. Wilcox, J. P. Stables, H. J. Kupferberg, and H. H. Wolf. General Principles; Discovery and Preclinical Development of Antiepileptic Drugs. In: R. H. Levy, R. H. Mattson, B. S. Meldrum, and E. Perucca, eds. Antiepileptic Drugs, 5th Ed. Lippincott Williams & Wilkins, Philadelphia 2002: pp. 36-48.) The obtained results are shown in following Table 10.

[8] = test system: ICR mice, tail-flick analgesia meter; assay: Tail-flick test; format: in vivo; conditions: orally, withdrawal latency
Description: To examine the pain relief effect of the carbamate compounds, a tail-flick test was conducted, referring to Current Protocols in Neuroscience; Behavioral Neuroscience Unit 8.9.
(§3) ICR mice (male, 25-30g; Orient Bio, Korea) were habituated before test (in test room) for 1 hour. Animals were fasted 2 hr before administration of compounds. Each of Compound was orally administered at the 1-3 dose, 10 ul/g, by bodyweight (n=4-6/group). All compounds were dissolved in a vehicle of 30% (v/v) PEG 400 or 20% (v/v) Tween 80. The control group was treated the vehicle without compounds.
After the administration of compounds, the mice tail were put on a tail-flick analgesia meter. To avoid tissue damage, maximal exposure time to pain stimuli was restricted to 15 s. The withdrawal latency was measured to the time to the point when each mouse responded. The relative values compared to the control (% control) were calculated.
The relative values compared to the sham were calculated and shown in Table 7, which show effect of the compound of examples on tail-flick test in Mice.

ICR mice on hot plate = assay: Hot-plate test; format: in vivo; conditions: Mus musculus, po, orally, withdrawal latency
Description: To examine the pain relief effect of the carbamate compounds, a hot-plate test was conducted in referring to Current Protocols in Neuroscience; Behavioral Neuroscience Unit 8.9.
as §3, with “25-28 g;” for “25-30g;”, “Compounds were” for “Each of Compound was”, “three” for “1-3”
0.25-2.0 hr after the administration of compounds, the mice were put on a hot plate pre-heated to 55±1 (Hu, X. et al, 2008), and then, the withdrawal latency time was measured (cut-off time: 30 sec) until the point when each mouse was taking a paw off from the plate, shaking, licking a paw or hind leg, or jumping from the plate.

corneally kindled rats = assay: Corneal kindling (CK) rat model; format: in vivo, Sprague-Dawley rats; conditions: po
From the text: Male Sprague-Dawley rats (purchased from Orient Bio Inc. Korea) of body weight 85-100 g were used for these studies. The MES test using the electroshock seizure apparatus designed by Rodent Shocker Type221 (Hugo Sachs Elektronik, Germany). The kindled rat models were electrically stimulated (8 mA, 60 Hz, 2 s, corneal electrodes) twice daily for 21 days until stage 5 seizure scored by Racine's scale (Racine, 1972) were evoked. The kindled rats were fasted and adapted to test condition, for at least 1 hour before the administration of test material. The drugs were administered orally (p.o.) in a volume of 4 μl/g body weight. The corneally kindled rat model test is a model for generalized […] seizures or bipolar disorder and identifies the compound which prevents seizure or bipolar disorder spread. The shock level was set at 8 mA, 60 Hz and the duration was set at 2 s. A drop of 0.9% saline was placed in each eye, the electrodes were placed over the eyes, and the shock was administered immediately. Pharmacological effects of the test materials were evaluated to compare the test groups (n=6) with a control group (n=6). Control group was administrated vehicle, only. The peak time was determined by administration test material's random dose for 0.5, 1, 2, 4 hour. The time that the most protect was defined peak time and ED50 was determined by other dose administration at peak time. […]

NC(=O)O[C@H]1CCc2cccc(Cl)c2[C@H]1O [Example 2, (1R, 2S)-8-chloro-1-hydroxy-1,2,3,4-tetrahydronaphthalen-2-yl carbamate] showed an ED50 [1] of 41 mg/kg, an ED50 [2] of 11.6 mg/kg and an ED50 ([3]; Rattus norvegicus, ip) of 39.7 mg/kg. The response vs control in vivo at 50 mg/kg [4] was 23.2%, the ED50 [5] was 26.6 mg/kg and the ED50 [6] was 50 mg/kg. For the same compound, the “PIC(ip) efficacy %” value [7] was 50 (66.6%).

For NC(=O)O[C@H]1Cc2cccc(Cl)c2[C@H]1O [Example 52, (1R, 2S)-7-chloro-1-hydroxy-2,3-dihydro-1H-inden-2-yl carbamate], the ED50 [1] was 24.3 mg/kg, the ED50 [2] was 10.9 mg/kg and the “scPTZ test (ip) efficacy %” value ([3]; dose 100 mg/kg) was 100 (33.3%,. For the same compound, the response vs control in vivo at 50 mg/kg [4] was 34.7%, the ED50 [6] was 63 mg/kg and the “Tail-flick test Dose” value [8] was >200 mg/kg. It also gave an ED50 (ICR mice on hot plate) of 119 mg/kg.

For NC(=O)O[C@@H]1Cc2cc(Cl)cc(Cl)c2[C@@H]1O [Example 59, (1S, 2R)-5,7-dichloro-1-hydroxy-2,3-dihydro-1H-inden-2-yl carbamate], the ED50 [1] was 56.5 mg/kg and the ED50 (corneally kindled rats) was 21.4 mg/kg.
